From patent publication US12371454B2, “Cyclic peptide compound having Kras inhibitory action” (priority 2019, dated 2025)
pIC50: −log10 of the molar value. Starred links: 1 amine or outer side, 2 acyl side, 3 side chain; linkers in the order of their positions; H or OH if unused. Positions of bridges follow the written chain, without caps; N, C: chain ends. Non-standard residues stand in square brackets, D forms with d. Residues, ends and D or L forms follow the SMILES beside them. *: point of attachment. NMeAbu(3,3-F2-piperidino) = CN[C@@H](CCN1CCCC(F)(F)C1)C(=O)O; hPhe(3-Cl-4-CF3) = N[C@@H](CCc1ccc(C(F)(F)F)c(Cl)c1)C(=O)O; hPhe(3-F,4-CF3) = N[C@@H](CCc1ccc(C(F)(F)F)c(F)c1)C(=O)O; NMePhe(4-CF3) = CN[C@@H](Cc1ccc(C(F)(F)F)cc1)C(=O)O; NMePhe(4-Cl) = CN[C@@H](Cc1ccc(Cl)cc1)C(=O)O; NMePhe(4-Me) = CN[C@@H](Cc1ccc(C)cc1)C(=O)O; NMePhe(2-Cl) = CN[C@@H](Cc1ccccc1Cl)C(=O)O; NMePhe(2-Me) = CN[C@@H](Cc1ccccc1C)C(=O)O; NMedβ3hAla = C[C@H](CC(=O)[*:2])N(C)[*:1]; NMeAla(cPent) = CN[C@@H](CC1CCCC1)C(=O)O; Phe(3-I) = N[C@@H](Cc1cccc(I)c1)C(=O)O; NMeCha = CN[C@@H](CC1CCCCC1)C(=O)O; Hyp = O=C(O)[C@@H]1C[C@@H](O)CN1; NMeChg = CN[C@H](C(=O)O)C1CCCCC1; NMeD = CN[C@@H](CC(=O)O)C(=O)O; NMeL = CN[C@@H](CC(C)C)C(=O)O; NMeV = CN[C@H](C(=O)O)C(C)C; d(β3hA) = C[C@@H](N)CC(=O)O; NMeA = CN[C@@H](C)C(=O)O; NMeAib = CNC(C)(C)C(=O)O; Nle = CCCC[C@H](N)C(=O)O; Piperidide = C1CCN(*)CC1; Pyrrolidide = C1CCN(*)C1; Ac5c = NC1(C(=O)O)CCCC1; Aze = O=C(O)[C@@H]1CCN1; Ac4c = NC1(C(=O)O)CCC1; Sar = CNCC(=O)O

What follows are compounds tested against T1, Kras and SOS1 (biotin-tagged human Kras loaded with GDP, His-tagged human SOS1) (Homo sapiens, UniProt P01116, G12D) (assay: Protein-protein interaction inhibition between Kras and SOS1 (KrasGl2D-SOS PPI) using AlphaScreen). Details: AlphaScreen; biotin-tagged human Kras loaded with GDP, His-tagged human SOS1; read-out: KRAS G12D-SOS PPI IC50.
T1 construct: made in house; host or cells: E. coli (stated for Kras only)
T1 sequence (P01116 1-188 isoform P01116-2 G12D): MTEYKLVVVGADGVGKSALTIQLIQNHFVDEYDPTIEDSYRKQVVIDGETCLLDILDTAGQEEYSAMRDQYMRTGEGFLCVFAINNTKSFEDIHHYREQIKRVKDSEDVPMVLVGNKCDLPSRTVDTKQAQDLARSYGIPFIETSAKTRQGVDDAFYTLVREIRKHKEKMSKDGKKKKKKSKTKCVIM
Type: binding
Outline: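 Binding between SOS1 and Kras is detected as bead-proximity luminescence: illuminate Ni-conjugated donors (680 nm), collect 520-620 nm emission from streptavidin-conjugated acceptors; Kras carries biotin and GDP loaded after purification, SOS1 carries a His tag.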

Row | SMILES | pIC50
1 | CC[C@H](C)[C@@H]1NC(=O)[C@H](C)N(C)C(=O)C[C@@H](C(=O)N2CCCCC2)N(C)C(=O)[C@H](C(C)C)N(C)C(=O)C2(CCCC2)NC(=O)[C@H](CCN2CCCC(F)(F)C2)N(C)C(=O)[C@H](CCc2ccc(C(F)(F)F)c(Cl)c2)NC(=O)CN(C)C(=O)[C@H](CC2CCCCC2)N(C)C(=O)[C@@H]2CCN2C(=O)[C@H](C)N(C)C1=O [Compound 682] ([NMeA]I[NMeA][Aze][NMeCha][Sar][hPhe(3-Cl-4-CF3)][NMeAbu(3,3-F2-piperidino)][Ac5c][NMeV][NMeD]-Piperidide; lactam N-11) | 7.70
2 | CC[C@H](C)[C@@H]1NC(=O)[C@H](CC(C)C)N(C)C(=O)C[C@@H](C)N(C)C(=O)[C@H](CC(C)C)NC(=O)C(C)(C)N(C)C(=O)[C@H](CC(C)C)NC(=O)[C@H](CCc2ccc(C(F)(F)F)c(F)c2)NC(=O)CN(C)C(=O)[C@H](CC2CCCCC2)N(C)C(=O)[C@@H]2CCN2C(=O)[C@H](C)N(C)C1=O [Compound 686] (cyclo([Aze][NMeCha][Sar][hPhe(3-F,4-CF3)]L[NMeAib]L[NMedβ3hAla][NMeL]I[NMeA])) | 6.77
3 | CC[C@H](C)[C@@H]1NC(=O)[C@H](CC(C)C)N(C)C(=O)C[C@@H](C(=O)N2CCCCC2)N(C)C(=O)[C@H](C2CCCCC2)N(C)C(=O)C2(CCCC2)NC(=O)[C@H](CC(=O)O)N(C)C(=O)[C@H](CCc2ccc(C(F)(F)F)c(Cl)c2)NC(=O)CN(C)C(=O)[C@H](CC2CCCCC2)N(C)C(=O)CN(C)C(=O)CN(C)C1=O [Compound 688] ([NMeL]I[Sar][Sar][NMeCha][Sar][hPhe(3-Cl-4-CF3)][NMeD][Ac5c][NMeChg][NMeD]-Piperidide; lactam N-11) | 8.64
4 | CCCC[C@@H]1NC(=O)[C@H](CCc2ccc(C(F)(F)F)c(Cl)c2)NC(=O)CN(C)C(=O)[C@H](CC2CCCC2)N(C)C(=O)[C@@H]2CCN2C(=O)[C@H](C)N(C)C(=O)[C@H]([C@@H](C)CC)NC(=O)[C@H](CC(C)C)N(C)C(=O)C[C@@H](C(=O)N2CCCCC2)N(C)C(=O)[C@H](CC(C)C)NC(=O)C(C)(C)N(C)C1=O [Compound 691] ([NMeL]I[NMeA][Aze][NMeAla(cPent)][Sar][hPhe(3-Cl-4-CF3)][Nle][NMeAib]L[NMeD]-Piperidide; lactam N-11) | 8.15
5 | CCCC[C@@H]1NC(=O)[C@H](Cc2cccc(I)c2)NC(=O)CN(C)C(=O)[C@H](Cc2ccc(Cl)cc2)N(C)C(=O)CN(C)C(=O)CN(C)C(=O)[C@H]([C@@H](C)CC)NC(=O)[C@H](CC(C)C)N(C)C(=O)C[C@@H](C(=O)N2CCCCC2)N(C)C(=O)[C@H](CC(C)C)NC(=O)[C@H](Cc2ccccc2C)N(C)C1=O [Compound 696] ([NMeL]I[Sar][Sar][NMePhe(4-Cl)][Sar][Phe(3-I)][Nle][NMePhe(2-Me)]L[NMeD]-Piperidide; lactam N-11) | 7.40
6 | CC[C@H](C)[C@@H]1NC(=O)[C@H](C)N(C)C(=O)C[C@@H](C)NC(=O)[C@H](C(C)C)N(C)C(=O)C2(CCCC2)NC(=O)[C@@H]2CCCN2C(=O)[C@H](CCc2ccc(C(F)(F)F)c(Cl)c2)NC(=O)CN(C)C(=O)[C@H](CC2CCCCC2)N(C)C(=O)CN(C)C(=O)CN(C)C1=O [Compound 697] (cyclo([Ac5c][NMeV][d(β3hA)][NMeA]I[Sar][Sar][NMeCha][Sar][hPhe(3-Cl-4-CF3)]P)) | 7.92
7 | CCO[C@@H]1C[C@H]2C(=O)NC3(CCC3)C(=O)N(C)[C@@H](C3CCCCC3)C(=O)N(C)[C@H](C)CC(=O)N(C)[C@@H](CC(C)C)C(=O)N[C@@H]([C@@H](C)CC)C(=O)N(C)[C@@H](C)C(=O)N3CC[C@H]3C(=O)N(C)[C@@H](Cc3ccc(C(F)(F)F)cc3)C(=O)N(C)CC(=O)N[C@@H](CCc3ccc(C(F)(F)F)c(Cl)c3)C(=O)N2C1 [Compound 698] (cyclo([Ac4c][NMeChg][NMedβ3hAla][NMeL]I[NMeA][Aze][NMePhe(4-CF3)][Sar][hPhe(3-Cl-4-CF3)][Hyp](Et))) | 7.64
8 | CC[C@H](C)[C@@H]1NC(=O)[C@H](C)N(C)C(=O)C[C@@H](C(=O)N2CCCC2)N(C)C(=O)[C@H](C(C)C)N(C)C(=O)[C@@H](C)NC(=O)[C@H](Cc2ccccc2Cl)N(C)C(=O)[C@H](CCc2ccc(C(F)(F)F)c(Cl)c2)NC(=O)CN(C)C(=O)[C@H](CC2CCCCC2)N(C)C(=O)CN(C)C(=O)CN(C)C1=O [Compound 702] ([NMeA]I[Sar][Sar][NMeCha][Sar][hPhe(3-Cl-4-CF3)][NMePhe(2-Cl)][dA][NMeV][NMeD]-Pyrrolidide; lactam N-11) | 6.89
9 | CC[C@H](C)[C@@H]1NC(=O)[C@H](CC(C)C)N(C)C(=O)C[C@@H](C(=O)N2CCCCC2)N(C)C(=O)[C@H](CC(C)C)NC(=O)C(C)(C)N(C)C(=O)[C@H](Cc2ccc(OC)cc2)NC(=O)[C@H](Cc2cccc(I)c2)NC(=O)CN(C)C(=O)[C@H](Cc2ccc(C)cc2)N(C)C(=O)[C@@H]2CCN2C(=O)[C@H](C)N(C)C1=O [Compound 703] ([NMeL]I[NMeA][Aze][NMePhe(4-Me)][Sar][Phe(3-I)]Y(Me)[NMeAib]L[NMeD]-Piperidide; lactam N-11) | 8.07
